Measurements from the NIST ThermoML archive (doi:10.1021/je101232g).
Numbers after ± are expanded uncertainties.

Conditions: Liquid

CCCCCCCCCCCCCC[P+](CCCCCC)(CCCCCC)CCCCCC.[Cl-] [trihexyl(tetradecyl)phosphonium chloride]
mass density [kg/m3]
Conditions	283.15 K	293.15 K	303.15 K	313.15 K	323.15 K	333.15 K
100 kPa	898.4 ± 0.8	892.4 ± 0.8	886.5 ± 0.8	880.6 ± 0.8	874.8 ± 0.8	868.9 ± 0.8
1000 kPa	898.8 ± 0.8	892.9 ± 0.8	887 ± 0.8	881.1 ± 0.8	875.3 ± 0.8	869.4 ± 0.9
2000 kPa	899.3 ± 0.8	893.4 ± 0.8	887.5 ± 0.8	881.7 ± 0.9	875.8 ± 0.9	870 ± 0.9
3000 kPa	899.8 ± 0.8	893.9 ± 0.9	888 ± 0.9	882.2 ± 0.9	876.4 ± 0.9	870.6 ± 0.9
4000 kPa	900.3 ± 0.9	894.4 ± 0.9	888.5 ± 0.9	882.7 ± 0.9	876.9 ± 1	871.1 ± 1
5000 kPa	900.7 ± 0.9	894.9 ± 0.9	889.1 ± 0.9	883.3 ± 1	877.6 ± 1	871.8 ± 1
10000 kPa	903.1 ± 1	897.3 ± 1.1	891.5 ± 1.1	885.9 ± 1.1	880.2 ± 1.2	874.5 ± 1.2
15000 kPa	905.3 ± 1.2	899.6 ± 1.2	894 ± 1.2	888.4 ± 1.3	882.8 ± 1.3	877.3 ± 1.4
20000 kPa	907.5 ± 1.3	901.8 ± 1.3	896.3 ± 1.4	890.8 ± 1.4	885.3 ± 1.5	879.9 ± 1.5
25000 kPa	909.6 ± 1.4	904 ± 1.5	898.6 ± 1.5	893.2 ± 1.6	887.8 ± 1.6	882.5 ± 1.7
30000 kPa	911.7 ± 1.5	906.3 ± 1.6	900.8 ± 1.6	895.5 ± 1.7	890.1 ± 1.8	884.9 ± 1.8
35000 kPa	913.7 ± 1.6	908.3 ± 1.7	903 ± 1.8	897.7 ± 1.8	892.6 ± 1.9	887.3 ± 2
40000 kPa	915.7 ± 1.7	910.3 ± 1.8	905.1 ± 1.9	899.9 ± 1.9	894.8 ± 2	889.6 ± 2.1
45000 kPa	917.6 ± 1.8	912.4 ± 1.9	907.2 ± 2	902.1 ± 2.1	897 ± 2.1	892 ± 2.2
